In patent US9718792B2, “Isoxazoline hydroxamic acid derivatives as LpxC inhibitors” (priority 2014, dated 2017):
Converted amounts (≈) assume the structure as drawn. Like-named read-outs stand apart in the source and are kept apart here.

Key:
P. aeruginosa LpxC = P. aeruginosa LpxC (Pseudomonas aeruginosa (strain ATCC 15692 / DSM 22644 / CIP 104116 / JCM 14847 / LMG 12228 / 1C / PRS 101 / PAO1), UniProt P47205); test: P. aeruginosa LpxC Inhibition Assay; format: biochemical; details: 2 μM substrate, LC-MS/MS
Procedure, shortened: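 Compounds pre-incubated 30 min at room temperature with 1 nM LpxC, then 2 μM UDP-3-O-(R-3-hydroxydecanoyl)-GlcNAc added; 20 min reaction in 50 mM sodium phosphate pH 7.5, 0.005% Triton X-100, quenched with HOAc. Product quantified by LC-MS/MS against calibration curve; IC50 from four-parameter logistic fit.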

P. aeruginosa PAO1 = test: Susceptibility Testing (MIC, broth microdilution); format: cell-based, Pseudomonas aeruginosa; details: P. aeruginosa PAO1, broth microdilution, 20 hours; for MIC: Pseudomonas aeruginosa, PAO1, 20 h, read-out: PAO1 MIC
Procedure, shortened: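 Broth microdilution per CLSI in cation-adjusted Mueller-Hinton broth, inoculum ~5×10^5 CFU/mL, two-fold compound dilutions (1% DMSO final). Plates incubated 20 h in ambient air at 35° C. MIC is the lowest concentration preventing visible growth, confirmed by OD 600 nm reading.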

[1] = 1 nM P. aeruginosa LpxC, read-out: PA LpxC IC50

IC50 (P. aeruginosa LpxC; [1]) [nM] | MIC (P. aeruginosa PAO1) [µg/mL] | Compound | IC50 (P. aeruginosa LpxC; PA LpxC IC50, 1 nM P. aeruginosa LpxC) [nM] | PAO1 MIC (P. aeruginosa PAO1) [µg/mL]
< 0.5 | 0.18 (≈ 0.388 µM) | C[C@@](C[C@H]1CC(c2ccc(-c3ccc(CCO)cc3)c(F)c2)=NO1)(C(=O)NO)S(C)(=O)=O [Compound 102, (R)-3-((R)-3-(2-fluoro-4′-(2-hydroxyethyl)-[1,1′-biphenyl]-4-yl)-4,5-dihydroisoxazol-5-yl)-N-hydroxy-2-methyl-2-(methylsulfonyl)] | – | –
0.6 | 0.18 (≈ 0.4 µM) | C[C@@](C[C@H]1CC(c2ccc(-c3ccc(CO)cc3)c(F)c2)=NO1)(C(=O)NO)S(C)(=O)=O [Compound 103, (R)-3-((R)-3-(2-fluoro-4′-(hydroxymethyl)-[1,1′-biphenyl]-4-yl)-4,5-dihydroisoxazol-5-yl)-N-hydroxy-2-methyl-2-(methylsulfonyl)propanamide] | – | –
0.5 | 0.125 (≈ 0.272 µM) | C[C@@](C[C@H]1CC(c2ccc(-c3ccc(CC#N)cc3)c(F)c2)=NO1)(C(=O)NO)S(C)(=O)=O [Compound 104, (R)-3-((R)-3-(4′-(cyanomethyl)-2-fluoro-[1,1′-biphenyl]-4-yl)-4,5-dihydroisoxazol-5-yl)-N-hydroxy-2-methyl-2-(methylsulfonyl)propanamide] | – | –
< 0.5 | 0.5 (≈ 1.04 µM) | CC(C)(O)c1ccc(-c2ccc(C3=NO[C@@H](C[C@](C)(C(=O)NO)S(C)(=O)=O)C3)cc2F)cc1 [Compound 110, (R)-3-((R)-3-(2-fluoro-4′-(2-hydroxypropan-2-yl)-[1,1′-biphenyl]-4-yl)-4,5-dihydroisoxazol-5-yl)-N-hydroxy-2-methyl-2-(methylsulfonyl)propanamide] | – | –
< 0.5 | 1 (≈ 2.12 µM) | C[C@@](C[C@H]1CC(c2ccc(-c3ccncc3C(F)(F)F)cc2)=NO1)(C(=O)NO)S(C)(=O)=O [Compound 111, (R)—N-hydroxy-2-methyl-2-(methylsulfonyl)-3-((R)-3-(4-(3-(trifluoromethyl)pyridin-4-yl)phenyl)-4,5-dihydroisoxazol-5-yl)propanamide] | – | –
< 0.5 | 1 (≈ 2.16 µM) | CC(C)c1cc(-c2ccc(C3=NO[C@@H](C[C@](C)(C(=O)NO)S(C)(=O)=O)C3)cc2F)ccn1 [Compound 112, (R)-3-((R)-3-(3-fluoro-4-(2-isopropylpyridin-4-yl)phenyl)-4,5-dihydroisoxazol-5-yl)-N-hydroxy-2-methyl-2-(methylsulfonyl)propanamide] | – | –
< 0.5 | 0.71 (≈ 1.53 µM) | COc1ccc(-c2ccc(C3=NO[C@@H](C[C@](C)(C(=O)NO)S(C)(=O)=O)C3)cc2F)c(C)c1 [Compound 113, (R)-3-((R)-3-(2-fluoro-4′-methoxy-2′-methyl-[1,1′-biphenyl]-4-yl)-4,5-dihydroisoxazol-5-yl)-N-hydroxy-2-methyl-2-(methylsulfonyl)propanamide] | – | –
< 0.5 | 32 (≈ 65.5 µM) | C[C@@](C[C@H]1CC(c2ccc(-c3ccc(-c4nn[nH]n4)cc3)c(F)c2)=NO1)(C(=O)NO)S(C)(=O)=O [Compound 114, (R)-3-((R)-3-(2-fluoro-4′-(2H-tetrazol-5-yl)-[1,1′-biphenyl]-4-yl)-4,5-dihydroisoxazol-5-yl)-N-hydroxy-2-methyl-2-(methylsulfonyl)propanamide] | – | –
< 0.5 | 1 (≈ 2.01 µM) | C[C@@H](O)Cc1ccc(-c2ccc(C3=NO[C@@H](C[C@](C)(C(=O)NO)S(C)(=O)=O)C3)cc2F)c(F)c1 [Compound 115, (R)-3-((R)-3-(2,2′-difluoro-4′-((R)-2-hydroxypropyl)-[1,1′-biphenyl]-4-yl)-4,5-dihydroisoxazol-5-yl)-N-hydroxy-2-methyl-2-(methylsulfonyl)propanamide] | – | –
< 0.5 | 0.5 (≈ 0.972 µM) | C[C@@H](O)Cc1cc(F)c(-c2ccc(C3=NO[C@@H](C[C@](C)(C(=O)NO)S(C)(=O)=O)C3)cc2F)c(F)c1 [Compound 116, (R)—N-hydroxy-2-methyl-2-(methylsulfonyl)-3-((R)-3-(2,2′,6′-trifluoro-4′-((R)-2-hydroxypropyl)-[1,1′-biphenyl]-4-yl)-4,5-dihydroisoxazol-5-yl) propanamide] | – | –
< 0.5 | 0.35 (≈ 0.796 µM) | C[C@@](C[C@H]1CC(c2ccc(-c3ccncc3F)c(F)c2)=NO1)(C(=O)NO)S(C)(=O)=O [Compound 117, (R)-3-((R)-3-(3-fluoro-4-(3-fluoropyridin-4-yl)phenyl)-4,5-dihydroisoxazol-5-yl)-N-hydroxy-2-methyl-2-(methylsulfonyl)propanamide] | – | –
4 | 4 (≈ 8.9 µM) | Cc1cc(-c2ccc(C3=NO[C@@H](C[C@](C)(C(=O)NO)S(C)(=O)=O)C3)cc2F)cc(C)n1 [Compound 118, (R)-3-((R)-3-(4-(2,6-dimethylpyridin-4-yl)-3-fluorophenyl)-4,5-dihydroisoxazol-5-yl)-N-hydroxy-2-methyl-2-(methylsulfonyl)propanamide] | – | –
< 0.5 | 0.71 (≈ 1.62 µM) | C[C@@](C[C@H]1CC(c2ccc(-c3ccncc3F)cc2F)=NO1)(C(=O)NO)S(C)(=O)=O [Compound 119, (R)-3-((R)-3-(2-fluoro-4-(3-fluoropyridin-4-yl)phenyl)-4,5-dihydroisoxazol-5-yl)-N-hydroxy-2-methyl-2-(methylsulfonyl)propanamide] | – | –
0.6 | 0.5 (≈ 1.34 µM) | CCc1ccc(C2=NO[C@@H](C[C@](C)(C(=O)NO)S(C)(=O)=O)C2)c(F)c1 [Compound 120, (R)-3-((R)-3-(4-ethyl-2-fluorophenyl)-4,5-dihydroisoxazol-5-yl)-N-hydroxy-2-methyl-2-(methylsulfonyl)propanamide] | – | –
< 0.5 | 0.5 (≈ 1.05 µM) | Cc1cc(C2=NO[C@@H](C[C@](C)(C(=O)NO)S(C)(=O)=O)C2)ccc1-c1ccc(C[C@@H](C)O)cc1 [Compound 121, (R)—N-hydroxy-3-((R)-3-(4′-((R)-2-hydroxypropyl)-2-methyl-[1,1′-biphenyl]-4-yl)-4,5-dihydroisoxazol-5-yl)-2-methyl-2-(methylsulfonyl)propanamide] | – | –
< 0.5 | 0.5 (≈ 1.01 µM) | C[C@@H](O)Cc1ccc(-c2c(F)cc(C3=NO[C@@H](C[C@](C)(C(=O)NO)S(C)(=O)=O)C3)cc2F)cc1 [Compound 122, (R)-3-((R)-3-(2,6-difluoro-4′-((R)-2-hydroxypropyl)-[1,1′-biphenyl]-4-yl)-4,5-dihydroisoxazol-5-yl)-N-hydroxy-2-methyl-2-(methylsulfonyl)propanamide] | – | –
< 0.5 | 0.25 (≈ 0.654 µM) | CC#Cc1ccc(C2=NO[C@@H](C[C@](C)(C(=O)NO)S(C)(=O)=O)C2)c(F)c1 [Compound 123, (R)-3-((R)-3-(2-fluoro-4-(prop-1-yn-1-yl)phenyl)-4,5-dihydroisoxazol-5-yl)-N-hydroxy-2-methyl-2-(methylsulfonyl)propanamide] | – | –

Compound | IC50 (P. aeruginosa LpxC; [1]) [nM] | MIC (P. aeruginosa PAO1) [µg/mL] | IC50 (P. aeruginosa LpxC; PA LpxC IC50, 1 nM P. aeruginosa LpxC) [nM] | PAO1 MIC (P. aeruginosa PAO1) [µg/mL]
Cn1ccc(-c2ccc(C3=NO[C@@H](C[C@](C)(C(=O)NO)S(C)(=O)=O)C3)cc2F)cc1=O [Compound 108, (R)-3-((R)-3-(3-fluoro-4-(1-methyl-2-oxo-1,2-dihydropyridin-4-yl)phenyl)-4,5-dihydroisoxazol-5-yl)-N-hydroxy-2-methyl-2-(methylsulfonyl)propanamide] | – | 8 (≈ 17.7 µM) | 2 | –
(R)-3-((R)-3-(2-fluoro-4′-((R)-2-hydroxypropyl)-[1,1′-biphenyl]-4-yl)-4,5-dihydroisoxazol-5-yl)-N-hydroxy-2-methyl-2-(methylsulfonyl)propanamide [Compound 107] | 0.5 | – | – | 0.25
